# Where two headings read alike, the source gives them in different places.
# Tests used:
# NCI-H322M = assay: Docetaxel, 5-FU, SDX-102 alone or combined, MTT/MTS cytotoxicity (Example 4); format: cell-based; conditions: Homo sapiens, NSCLC, single agent, MTT 72 hours
# NCI-H2452 = assay: Cell viability MTT assay (Example 3); format: cell-based; conditions: Homo sapiens, 72 h; NCI-H2452, Mesothelioma, MTAP Negative; 3 days
# mice = conditions: cited from earlier work
# [1] = humans, intravenous, biphasic plasma clearance; times approximate; cited from earlier work
# BxPC3 = assay: Cell viability MTT assay (Example 3); format: cell-based; conditions: Homo sapiens, BXPC-3, 72 h; BxPC3, Pancreatic, MTAP Negative; 3 days
structure (smiles),measurement,setting,value
"NC(CN(O)N=O)C(=O)O [L-alanosine, L(−)-2-amino-3-nitrosohydroxylaminopropionic acid]",IC50,NCI-H322M,6 ± 1 µM
same,IC50,NCI-H2452,500 nM
same,LD50,mice; administered intraperitoneally,600 mg/kg
same,LD50,mice; given intravenously,300 mg/kg
same,t1/2α,[1],~14 min
same,t1/2β,[1],~99 min
same,IC50,BxPC3,6 µM
